Measured values: ChEMBL document CHEMBL4138123, “Design, synthesis and biological evaluation of novel pyrazolochalcones as potential modulators of PI3K/Akt/mTOR pathway and inducers of apoptosis in breast cancer cells” (Eur J Med Chem, 2017)

Key:
[1] = test system: HCC 2998; assay: Cytotoxicity against human HCC2998 cells assessed as cell growth at 0.01 uM after 48 hrs by sulforhodamine B assay relative to control; assay type: functional; details: HCC 2998, 48 h, read-out: Activity
[2] = test system: OVCAR-4; assay: Cytotoxicity against human OVCAR4 cells assessed as cell growth at 100 uM after 48 hrs by sulforhodamine B assay relative to control; assay type: functional; details: OVCAR-4, 48 h, read-out: Activity
[3] = test system: BT-549; assay: Cytotoxicity against human BT549 cells assessed as growth inhibition after 48 hrs by sulforhodamine B assay; assay type: functional; details: BT-549, 48 h
[4] = test system: HCT-15; assay: Cytotoxicity against human HCT15 cells assessed as cell growth at 100 uM after 48 hrs by sulforhodamine B assay relative to control; assay type: functional; details: HCT-15, 48 h, read-out: Activity
[5] = test system: T47D; assay: Cytotoxicity against human T47D cells assessed as growth inhibition after 48 hrs by sulforhodamine B assay; assay type: functional
[6] = test system: BT-549; assay: Cytotoxicity against human BT549 cells assessed as cell growth at 1 uM after 48 hrs by sulforhodamine B assay relative to control; assay type: functional; details: BT-549, 48 h, read-out: Activity
[7] = test system: PC-3; assay: Cytotoxicity against human PC3 cells assessed as cell growth at 0.01 uM after 48 hrs by sulforhodamine B assay relative to control; assay type: functional; details: PC-3, 48 h, read-out: Activity
[8] = test system: SK-MEL-5; assay: Cytotoxicity against human SK-MEL-5 cells assessed as cell growth at 10 uM after 48 hrs by sulforhodamine B assay relative to control; assay type: functional; details: SK-MEL-5, 48 h, read-out: Activity
[9] = test system: SK-OV-3; assay: Cytotoxicity against human SKOV3 cells assessed as cell growth at 100 uM after 48 hrs by sulforhodamine B assay relative to control; assay type: functional; details: SK-OV-3, 48 h, read-out: Activity
[10] = test system: HOP-62; assay: Cytotoxicity against human HOP62 cells assessed as cell growth at 100 uM after 48 hrs by sulforhodamine B assay relative to control; assay type: functional; details: HOP-62, 48 h, read-out: Activity
[11] = test system: 786-0; assay: Cytotoxicity against human 786-0 cells assessed as cell growth at 100 uM after 48 hrs by sulforhodamine B assay relative to control; assay type: functional; details: 786-0, 48 h, read-out: Activity
[12] = test system: HOP-62; assay: Cytotoxicity against human HOP62 cells assessed as growth inhibition after 48 hrs by sulforhodamine B assay; assay type: functional; details: HOP-62, 48 h
[13] = test system: SF-268; assay: Cytotoxicity against human SF268 cells assessed as cell growth at 0.1 uM after 48 hrs by sulforhodamine B assay relative to control; assay type: functional; details: SF-268, 48 h, read-out: Activity
[14] = test system: OVCAR-5; assay: Cytotoxicity against human OVCAR5 cells assessed as cell growth at 0.01 uM after 48 hrs by sulforhodamine B assay relative to control; assay type: functional; details: OVCAR-5, 48 h, read-out: Activity
[15] = test system: HCT-15; assay: Cytotoxicity against human HCT15 cells assessed as cell growth at 1 uM after 48 hrs by sulforhodamine B assay relative to control; assay type: functional; details: HCT-15, 48 h, read-out: Activity
[16] = test system: MDA-MB-468; assay: Cytotoxicity against human MDA-MB-468 cells assessed as growth inhibition after 48 hrs by sulforhodamine B assay; assay type: functional; details: MDA-MB-468, 48 h
[17] = test system: Hs-578T; assay: Cytotoxicity against human Hs 578T cells assessed as cell growth at 10 uM after 48 hrs by sulforhodamine B assay relative to control; assay type: functional; details: read-out: Activity
[18] = test system: NCI-H460; assay: Cytotoxicity against human NCI-H460 cells assessed as cell growth at 0.1 uM after 48 hrs by sulforhodamine B assay relative to control; assay type: functional; details: NCI-H460, 48 h, read-out: Activity
[19] = test system: T47D; assay: Cytotoxicity against human T47D cells assessed as cell growth at 100 uM after 48 hrs by sulforhodamine B assay relative to control; assay type: functional; details: read-out: Activity
[20] = test system: T47D; assay: Cytotoxicity against human T47D cells assessed as cell growth at 0.1 uM after 48 hrs by sulforhodamine B assay relative to control; assay type: functional; details: read-out: Activity
[21] = test system: NCI-H226; assay: Cytotoxicity against human NCI-H226 cells assessed as cell growth at 10 uM after 48 hrs by sulforhodamine B assay relative to control; assay type: functional; details: NCI-H226, 48 h, read-out: Activity
[22] = test system: OVCAR-8; assay: Cytotoxicity against human OVCAR8 cells assessed as cell growth at 100 uM after 48 hrs by sulforhodamine B assay relative to control; assay type: functional; details: OVCAR-8, 48 h, read-out: Activity
[23] = test system: U-251; assay: Cytotoxicity against human U251 cells assessed as growth inhibition after 48 hrs by sulforhodamine B assay; assay type: functional; details: U-251, 48 h
[24] = test system: HL-60(TB); assay: Cytotoxicity against human HL-60(TB) cells assessed as growth inhibition after 48 hrs by sulforhodamine B assay; assay type: functional; details: HL-60, 48 h
[25] = test system: OVCAR-4; assay: Cytotoxicity against human OVCAR4 cells assessed as cell growth at 0.01 uM after 48 hrs by sulforhodamine B assay relative to control; assay type: functional; details: OVCAR-4, 48 h, read-out: Activity
[26] = test system: NCI-H522; assay: Cytotoxicity against human NCI-H522 cells assessed as cell growth at 10 uM after 48 hrs by sulforhodamine B assay relative to control; assay type: functional; details: NCI-H522, 48 h, read-out: Activity
[27] = test system: PC-3; assay: Cytotoxicity against human PC3 cells assessed as cell growth at 100 uM after 48 hrs by sulforhodamine B assay relative to control; assay type: functional; details: PC-3, 48 h, read-out: Activity
[28] = test system: SF-539; assay: Cytotoxicity against human SF539 cells assessed as cell growth at 10 uM after 48 hrs by sulforhodamine B assay relative to control; assay type: functional; details: SF-539, 48 h, read-out: Activity
[29] = test system: MCF7; assay: Cytotoxicity against human MCF7 cells assessed as growth inhibition after 48 hrs by MTT assay; assay type: functional, cell-based; details: MCF7, 48 h
[30] = test system: HCT-116; assay: Cytotoxicity against human HCT116 cells assessed as cell growth at 100 uM after 48 hrs by sulforhodamine B assay relative to control; assay type: functional; details: HCT-116, 48 h, read-out: Activity
[31] = test system: NCI-H23; assay: Cytotoxicity against human NCI-H23 cells assessed as growth inhibition after 48 hrs by sulforhodamine B assay; assay type: functional; details: NCI-H23, 48 h; for CC50: read-out: LC50 (the source's name)
[32] = test system: MOLT-4; assay: Cytotoxicity against human MOLT4 cells assessed as cell growth at 0.01 uM after 48 hrs by sulforhodamine B assay relative to control; assay type: functional; details: MOLT-4, 48 h, read-out: Activity
[33] = test system: IGROV-1; assay: Cytotoxicity against human IGROV1 cells assessed as cell growth at 1 uM after 48 hrs by sulforhodamine B assay relative to control; assay type: functional; details: IGROV-1, 48 h, read-out: Activity
[34] = test system: MOLT-4; assay: Cytotoxicity against human MOLT4 cells assessed as cell growth at 100 uM after 48 hrs by sulforhodamine B assay relative to control; assay type: functional; details: MOLT-4, 48 h, read-out: Activity

## COc1cc(-c2cc(/C=C/C(=O)c3ccc(F)c(F)c3)[nH]n2)cc(OC)c1OC
[1]
  growth at 0.01 µM: 83%
[2]
  growth at 100 µM: -3%
[3]
  LC50 (concentration killing 50% of cells): 79.5 µM
  TGI: 19.3 µM
[4]
  growth at 100 µM: 2%
[5]
  LC50: > 100 µM
  TGI: 27 µM
[6]
  growth at 1 µM: 92%
[7]
  growth at 0.01 µM: 98%
[8]
  growth at 10 µM: -21%
[9]
  growth at 100 µM: -5%
[10]
  growth at 100 µM: 4%
[11]
  growth at 100 µM: -47%
[12]
  LC50: > 100 µM
  TGI: > 100 µM
[13]
  growth at 0.1 µM: 94%
[14]
  growth at 0.01 µM: 99%
[15]
  growth at 1 µM: 88%
[16]
  GI50: 2.22 µM
  LC50: > 100 µM
  TGI: 9.47 µM
[17]
  growth at 10 µM: 21%
[18]
  growth at 0.1 µM: 102%
[19]
  growth at 100 µM: -11%
[20]
  growth at 0.1 µM: 93%
[21]
  growth at 10 µM: 16%
[22]
  growth at 100 µM: -12%
[23]
  LC50: > 100 µM
  TGI: 15.7 µM
[24]
  LC50: > 100 µM
  TGI: 6.03 µM
[25]
  growth at 0.01 µM: 90%
[26]
  growth at 10 µM: -38%
[27]
  growth at 100 µM: -41%
[28]
  growth at 10 µM: 21%
[29]
  IC50: 2.5 µM
[30]
  growth at 100 µM: -52%
[31]
  TGI: 8.5 µM
  CC50: > 100 µM
[32]
  growth at 0.01 µM: 108%
[33]
  growth at 1 µM: 95%
[34]
  growth at 100 µM: -14%

## COc1ccc(-c2cc(/C=C/C(=O)c3ccc4c(c3)OCO4)[nH]n2)cc1OC
[3]
  GI50: 1.44 µM
[5]
  GI50: 1.36 µM
[12]
  GI50: 1.73 µM
[16]
  GI50: 1.09 µM
[23]
  GI50: 1.2 µM
[24]
  GI50: 2.76 µM
[29]
  IC50: 1.5 µM
[31]
  GI50: 2.25 µM

## COc1cc(-c2cc(/C=C/C(=O)c3ccc(Cl)c(Cl)c3)[nH]n2)cc(OC)c1OC
[1]
  growth at 0.01 µM: 96%
[2]
  growth at 100 µM: -22%
[3]
  LC50 (concentration killing 50% of cells): 92.6 µM
  TGI: 29.3 µM
[5]
  LC50: > 100 µM
  TGI: 15.7 µM
[6]
  growth at 1 µM: 92%
[7]
  growth at 0.01 µM: 95%
[8]
  growth at 10 µM: 62%
[9]
  growth at 100 µM: -70%
[10]
  growth at 100 µM: -74%
[11]
  growth at 100 µM: -10%
[12]
  LC50: 42.6 µM
  TGI: 7.66 µM
[13]
  growth at 0.1 µM: 92%
[14]
  growth at 0.01 µM: 97%
[15]
  growth at 1 µM: 86%
[16]
  GI50: 1.98 µM
  LC50: > 100 µM
  TGI: 7.22 µM
[17]
  growth at 10 µM: 63%
[18]
  growth at 0.1 µM: 105%
[19]
  growth at 100 µM: -36%
[20]
  growth at 0.1 µM: 87%
[21]
  growth at 10 µM: 67%
[22]
  growth at 100 µM: -36%
[23]
  LC50: > 100 µM
  TGI: 80.5 µM
[24]
  LC50: > 100 µM
  TGI: 36.7 µM
[25]
  growth at 0.01 µM: 92%
[26]
  growth at 10 µM: -72%
[27]
  growth at 100 µM: 10%
[28]
  growth at 10 µM: 28%
[29]
  IC50: 3.2 µM
[30]
  growth at 100 µM: -32%
[31]
  TGI: > 100 µM
  CC50: > 100 µM
[32]
  growth at 0.01 µM: 98%
[33]
  growth at 1 µM: 99%
[34]
  growth at 100 µM: -15%

## COc1cc(C(=O)/C=C/c2cc(-c3cc(OC)c(OC)c(OC)c3)n[nH]2)cc(OC)c1OC
[1]
  growth at 0.01 µM: 102%
[2]
  growth at 100 µM: -98%
[3]
  LC50 (concentration killing 50% of cells): 5.6 µM
  TGI: 2.96 µM
[4]
  growth at 100 µM: -72%
[5]
  LC50: 5.86 µM
  TGI: 2.57 µM
[6]
  growth at 1 µM: 85%
[7]
  growth at 0.01 µM: 95%
[8]
  growth at 10 µM: -98%
[9]
  growth at 100 µM: -100%
[10]
  growth at 100 µM: -100%
[11]
  growth at 100 µM: -98%
[12]
  LC50: 5.74 µM
  TGI: 2.89 µM
[13]
  growth at 0.1 µM: 99%
[14]
  growth at 0.01 µM: 97%
[15]
  growth at 1 µM: 76%
[16]
  GI50: 1.15 µM
  LC50: 5.37 µM
  TGI: 2.48 µM
[17]
  growth at 10 µM: 10%
[18]
  growth at 0.1 µM: 104%
[19]
  growth at 100 µM: -92%
[20]
  growth at 0.1 µM: 92%
[21]
  growth at 10 µM: -92%
[22]
  growth at 100 µM: -99%
[23]
  LC50: 5.67 µM
  TGI: 2.96 µM
[24]
  LC50: > 100 µM
  TGI: 5.52 µM
[25]
  growth at 0.01 µM: 95%
[26]
  growth at 10 µM: -97%
[27]
  growth at 100 µM: -94%
[28]
  growth at 10 µM: -80%
[29]
  IC50: 0.43 µM
[30]
  growth at 100 µM: -88%
[31]
  TGI: 9.9 µM
  CC50: 64.3 µM
[32]
  growth at 0.01 µM: 104%
[33]
  growth at 1 µM: 99%
[34]
  growth at 100 µM: -15%
